Measured values taken from patent publication US20160199499A1, “USES OF PH[…] SYNTHETIC TLR7 AGONISTS” (priority 2013, published 2016).
“And” between values parts separate entries of the source, which are not always exact repeats. Identical values can stand only once.

Legend:
CD11c+ dendritic cells = assay: In vivo CFSE labeling of dendritic cells, migration to mediastinal lymph nodes (flow cytometry); set-up: species or system C57BL/6 mice; conditions: 1 nmol i.t., 24 h after drug administration
[1] = test system: neutrophils in BAL fluids; assay: BAL cell counts (Guava cytometer, Wright-Giemsa differential) after i.t. administration; format: in vivo, C57BL/6 mice
[2] = test system: Venezuelan equine encephalitis virus (Trinidad Donkey, NR-332); set-up: species or system BALB/c mice; conditions: mouse, in vivo, sc
[3] = test system: influenza A/California/04/2009 (H1N1) virus; set-up: species or system BALB/c mice; conditions: mouse, in vivo
West Nile Virus (WNV) = assay: West Nile virus s.c. infection model; format: in vivo, C57BL/6 mice
[4] = test system: Vaccinia virus (IHD strain); set-up: species or system BALB/c mice; conditions: mouse, in vivo
Particle size in PBS = format: physicochemical
lung parenchyma = assay: Lung histology (H&E) after i.t. administration; conditions: 1 nmol i.t., 6 and 24 h post treatment
B220+ B cells = assay: B cell numbers in lymph nodes after pulmonary administration (flow cytometry); conditions: 1 nmol, 7 days post treatment
[5] = Body weight monitoring / maximum tolerated dose after pulmonary administration
[6] = test system: cytokines and chemokines in BAL fluids and sera; assay: Luminex bead assay of cytokines and chemokines in BAL fluids and sera after pulmonary administration
[7] = 1 nmol i.t., 6 h post-treatment, vs vehicle
[8] = 24 h after pulmonary (i.n.) administration, up to a 4 nmol dose

Compound: CCCCCCCC/C=C\CCCCCCCC(=O)OCC(COP(=O)(O)OCCNC(=O)c1ccc(Cn2c(=O)[nH]c3c(N)nc(OCCOC)nc32)cc1)OC(=O)CCCCCCC/C=C\CCCCCCCC (stereo not shown) [1V270, 2-(4-{[6-Amino-2-(2-methoxyethoxy)-8-oxo-7H-purin-9(8H)-yl]methyl}benzamido)ethyl 2,3-Bis(oleoyloxy)propyl Phosphate]
- CD11c+ DC migration to the mediastinal lymph nodes (CD11c+ dendritic cells): enhanced
- cell infiltration and neutrophil recruitment to BAL fluids in MyD88 or TLR7 null mice ([1]; 1 nmol i.t., 24 h, Myd88-/- or Tlr7-/- mice): diminished
- mononuclear cells in BAL fluids ([1]; 1 nmol i.t., 24 h after treatment, also elevated in vehicle-treated mice): slightly elevated
- neutrophil population in BAL fluids ([1]; 1 nmol i.t., 24 h and 48 h after treatment): significant increase
- total cell numbers in the BAL fluids ([1]; 1 nmol i.t., monitored for 72 h): increased over 48 h and declined to near baseline levels 72 h post pulmonary administration
- neutrophil influx dose response ([1]; 24 h post treatment, i.t.): dose responsive between 0.1 to 10 nmol
- mice protected from encephalitis [2]: Eighty
- mice protected from lethal H1N1 pulmonary influenza infection [3]: 100%
- survival compared to placebo-treated mice (West Nile Virus (WNV); 1 nmol/mouse i.n. at days -3 and -1, WNV s.c. day 0): not significant
- survival compared to placebo-treated mice (West Nile Virus (WNV); 1 nmol/mouse i.n. on day -1, WNV s.c. day 0 (P≦0.05)): statistically improved
- Mean Day of Death ± SD [4]: 7.2 ± 0.6 days and 8.4 ± 0.5 days and 9.0 days and 8.0 days and 7.3 ± 0.8 days
- Survivors/Total [4]: 0/10 and 10/10*** and 5/10** and 9/10*** and 8/10*** and 3/10*
- body weights during the infection [4]: increased over the first three days before declining
- mice protected from death [4]: 90-100%
- preserving body weight, rank among treatments [4]: best effect in preserving body weight
- particle size (Particle size in PBS; dispersed in 50 μL PBS): 100-150 nm
- particle size, average (Particle size in PBS; in PBS, regardless of concentration): about 110 nm
- inflammatory cell infiltration into the lung parenchyma (lung parenchyma): did not show inflammatory cell infiltration into the lung parenchyma
- B cell number in the cervical, mesenteric and inguinal nodes (B220+ B cells): did not significantly increase
- B cell number in the draining mediastinal lymph nodes (B220+ B cells): did not significantly increase
- weight loss in TLR7 null mice ([5]; 75 nmol i.t., Tlr7-/- mice): did not lose weight
- MTD relative to the effective dose ([5]; MTD 75 nmol/animal vs effective dose 1 nmol): 75 times
- weight loss compared to vehicle treated mice ([5]; effective dose (1 nmoles), i.t.): did not cause significant weight loss
- effective dose ([5]; pulmonary route, mice): 1 nmol
- maximum tolerated dose (MTD) ([5]; pulmonary route, mice): 75 nmol/animal
- IL-6 in BAL fluids [6, 7]: significantly increased
- KC in BAL fluids [6, 7]: significantly increased
- MCP-1 in BAL fluids [6, 7]: significantly increased
- IP-10 induction in BAL fluids (surrogate marker of type 1 IFN) ([6]; 1 nmol i.t., monitored up to 72 h): peaked at 24 h and declined to baseline levels 72 h post treatment
- IL-6 in sera [6, 8]: minimal insignificant increase
- TNFα in sera [6, 8]: minimal insignificant increase

Compound: Nc1ccn(C[C@@H](CO)OCP(=O)(O)O)c(=O)n1 [Cidofovir, reference compound]
- Survivors/Total [4]: 10/10
- effects on body weight [4]: superior to treatments with 1V270 that were started on the same day
- mice protected from death [4]: 100%
